Consider 36 molecules from patent US8653263B2 (Janssen Pharmaceutica, priority 2009, dated 2014).

pKi: −log10 of the molar value.

Chain of human orexin-2 receptor (O43614 whole entry): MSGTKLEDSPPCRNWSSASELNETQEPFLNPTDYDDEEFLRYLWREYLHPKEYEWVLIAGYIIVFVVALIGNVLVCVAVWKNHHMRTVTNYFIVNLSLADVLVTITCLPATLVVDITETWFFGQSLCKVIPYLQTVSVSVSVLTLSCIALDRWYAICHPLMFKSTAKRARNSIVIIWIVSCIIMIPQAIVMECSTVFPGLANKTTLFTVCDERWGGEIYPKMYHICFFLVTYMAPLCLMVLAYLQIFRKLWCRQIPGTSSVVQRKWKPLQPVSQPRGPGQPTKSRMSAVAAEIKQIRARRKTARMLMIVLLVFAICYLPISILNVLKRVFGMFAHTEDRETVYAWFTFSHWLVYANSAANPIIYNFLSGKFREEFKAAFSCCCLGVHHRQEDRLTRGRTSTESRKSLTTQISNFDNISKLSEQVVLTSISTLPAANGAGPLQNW

This test concerns the target human orexin-2 receptor (Homo sapiens (Human), UniProt O43614). Kind of test: Human orexin 2 receptor radioligand binding ([3H]-EMPA competition). The note with it: HEK293 cells stably expressing human orexin-2 receptor; [3H]-EMPA 5 nM final; apparent Ki=IC50/(1+C/Kd), Kd=2 nM; read-out: OR 2 Ki.
Consider `Cc1cc(C)nc(N2CC3CN(C(=O)c4ccccc4-c4nccn4C)CC3C2)n1` (stereo not drawn) [Example 39, [5-(4,6-Dimethyl-pyrimidin-2-yl)-hexahydro-pyrrolo[3,4-c]pyrrol-2-yl]-[2-(1-methyl-1H-imidazol-2-yl)-phenyl]-methanone], for which the pKi (in general, the negative decadic logarithm of the Ki, by convention in mol/L) is 5.05.

In the case of `O=C(c1ccccc1-c1cccc(Cl)c1)N1CC2CN(c3cnc4ccccc4n3)CC2C1` (stereo not drawn) [Example 41, 2-{5-[(3′-Chlorobiphenyl-2-yl)carbonyl]hexahydropyrrolo[3,4-c]pyrrol-2(1H)-yl}quinoxaline], the pKi is 6.45.

As to `O=C(c1ccccc1Br)N1CC2CN(c3cnc4ccccc4n3)CC2C1` (stereo not drawn) [Example 42, 2-{5-[(2-Bromophenyl)carbonyl]hexahydropyrrolo[3,4-c]pyrrol-2(1H)-yl}quinoxaline], the pKi is 6.21.

`Cc1cc(C)nc(N2CC3CN(C(=O)c4ccccc4-c4cccs4)CC3C2)n1` (stereo not drawn) [Example 43, 2-(4,6-Dimethylpyrimidin-2-yl)-5-[(2-thiophen-2-ylphenyl)carbonyl]octahydro-pyrrolo[3,4-c]pyrrole]: the pKi is 8.15.

As to `Cc1cc(C)nc(N2CC3CN(C(=O)c4ccccc4-c4ccccc4)CC3C2)n1` (stereo not drawn) [Example 44, 2-(Biphenyl-2-ylcarbonyl)-5-(4,6-dimethylpyrimidin-2-yl)octahydropyrrolo[3,4-c]pyrrole], the pKi is 6.85.

Regarding `COc1ccnc(N2CC3CN(C(=O)c4ccccc4-c4cccs4)CC3C2)n1` (stereo not drawn) [Example 45, 2-(4-Methoxypyrimidin-2-yl)-5-[(2-thiophen-2-ylphenyl)carbonyl]octahydro-pyrrolo[3,4-c]pyrrole], the pKi is 7.44.

For `O=C(c1ccccc1-c1cccs1)N1CC2CN(c3nc4ccc(F)cc4s3)CC2C1` (stereo not drawn) [Example 46, 6-Fluoro-2-{5-[(2-thiophen-2-ylphenyl)carbonyl]hexahydropyrrolo[3,4-c]pyrrol-2(1H)-yl}-1,3-benzothiazole], the pKi is 6.88.

Turning to `Cc1cc(C)nc(N2CC3CN(C(=O)c4c(C)ccc5ccccc45)CC3C2)n1` (stereo not drawn) [Example 47, 2-(4,6-Dimethylpyrimidin-2-yl)-5-[(2-methylnaphthalen-1-yl)carbonyl]octahydro-pyrrolo[3,4-c]pyrrole], the pKi is 7.42.

Take `Cc1ccnc(N2CC3CN(C(=O)c4ccccc4-c4cccc(F)c4)CC3C2)n1` (stereo not drawn) [Example 48, 2-[(3′-Fluorobiphenyl-2-yl)carbonyl]-5-(4-methylpyrimidin-2-yl)octahydro-pyrrolo[3,4-c]pyrrole]: the pKi is 6.15.

For the molecule `COc1ccnc(N2CC3CN(C(=O)c4c(C)ccc5ccccc45)CC3C2)n1` (stereo not drawn) [Example 49, 2-(4-Methoxypyrimidin-2-yl)-5-[(2-methylnaphthalen-1-yl)carbonyl]octahydro-pyrrolo[3,4-c]pyrrole], the pKi was 7.11.

For `Cc1ccnc(N2CC3CN(C(=O)c4c(C)ccc5ccccc45)CC3C2)n1` (stereo not drawn) [Example 50, 2-[(2-Methylnaphthalen-1-yl)carbonyl]-5-(4-methylpyrimidin-2-yl)octahydro-pyrrolo[3,4-c]pyrrole], the pKi was 6.67.

With `COc1ccnc(N2CC3CN(C(=O)c4ccccc4-c4cccc(F)c4)CC3C2)n1` (stereo not drawn) [Example 51, 2-[(3′-Fluorobiphenyl-2-yl)carbonyl]-5-(4-methoxypyrimidin-2-yl)octahydro-pyrrolo[3,4-c]pyrrole], the pKi is 6.19.

On to `Cc1cc(C)nc(N2CC3CN(C(=O)c4ccccc4-c4cccc(F)c4)CC3C2)n1` (stereo not drawn) [Example 52, 2-(4,6-Dimethylpyrimidin-2-yl)-5-[(3′-fluorobiphenyl-2-yl)carbonyl]octahydro-pyrrolo[3,4-c]pyrrole], for which the pKi was 7.19.

On to `Cc1cc(C)nc(N2CC3CN(C(=O)c4ccccc4F)CC3C2)n1` (stereo not drawn) [Example 53, [5-(4,6-Dimethyl-pyrimidin-2-yl)-hexahydro-pyrrolo[3,4-c]pyrrol-2-yl]-(2-fluoro-phenyl)-methanone], for which the pKi was 5.30.

Take `COc1ccnc(N2CC3CN(C(=O)c4ccccc4-c4ccc(C)cc4)CC3C2)n1` (stereo not drawn) [Example 54, 2-(4-Methoxypyrimidin-2-yl)-5-[(4′-methylbiphenyl-2-yl)carbonyl]octahydro-pyrrolo[3,4-c]pyrrole]: the pKi was 6.11.

For `COc1ccnc(N2CC3CN(C(=O)c4ccccc4-c4cccc(Cl)c4)CC3C2)n1` (stereo not drawn) [Example 55, 2-[(3′-Chlorobiphenyl-2-yl)carbonyl]-5-(4-methoxypyrimidin-2-yl)octahydro-pyrrolo[3,4-c]pyrrole], the pKi is 6.13.

With `CCOc1ccc2ccccc2c1C(=O)N1CC2CN(c3nccc(OC)n3)CC2C1` (stereo not drawn) [Example 56, 2-[(2-Ethoxynaphthalen-1-yl)carbonyl]-5-(4-methoxypyrimidin-2-yl)octahydropyrrolo[3,4-c]pyrrole], the pKi is 7.10.

On to `COc1ccnc(N2CC3CN(C(=O)c4ccc(F)c5ccccc45)CC3C2)n1` (stereo not drawn) [Example 57, 2-[(4-Fluoronaphthalen-1-yl)carbonyl]-5-(4-methoxypyrimidin-2-yl)octahydro-pyrrolo[3,4-c]pyrrole], for which the pKi was 6.78.

As for `COc1ccnc(N2CC3CN(C(=O)c4cccc5ccccc45)CC3C2)n1` (stereo not drawn) [Example 58, 2-(4-Methoxypyrimidin-2-yl)-5-(naphthalen-1-ylcarbonyl)octahydropyrrolo[3,4-c]pyrrole], the pKi was 6.64.

Take `CCOc1ccccc1C(=O)N1CC2CN(c3nccc(OC)n3)CC2C1` (stereo not drawn) [Example 59, 2-[(2-Ethoxyphenyl)carbonyl]-5-(4-methoxypyrimidin-2-yl)octahydropyrrolo[3,4-c]pyrrole]: the pKi was 6.11.

For `COc1ccnc(N2CC3CN(C(=O)c4c(OC)ccc5ccccc45)CC3C2)n1` (stereo not drawn) [Example 60, 2-[(2-Methoxynaphthalen-1-yl)carbonyl]-5-(4-methoxypyrimidin-2-yl)octahydropyrrolo[3,4-c]pyrrole], the pKi was 6.76.

As to `O=C(c1ccccc1-c1ccccc1)N1CC2CN(c3nccc(-c4cn[nH]c4)n3)CC2C1` (stereo not drawn) [Example 61, 2-(Biphenyl-2-ylcarbonyl)-5-[4-(1H-pyrazol-4-yl)pyrimidin-2-yl]octahydro-pyrrolo[3,4-c]pyrrole], the pKi is 6.65.

As to `O=C(c1ccccc1-c1cccs1)N1CC2CN(c3nccc(-c4cn[nH]c4)n3)CC2C1` (stereo not drawn) [Example 62, 2-[4-(1H-Pyrazol-4-yl)pyrimidin-2-yl]-5-[(2-thiophen-2-ylphenyl)carbonyl]octahydro-pyrrolo[3,4-c]pyrrole], the pKi is 7.38.

Consider `Cc1cnc(C)c(N2CC3CN(C(=O)c4ccccc4-c4cccs4)CC3C2)n1` (stereo not drawn) [Example 63, 2-(3,6-Dimethylpyrazin-2-yl)-5-[(2-thiophen-2-ylphenyl)carbonyl]octahydro-pyrrolo[3,4-c]pyrrole], for which the pKi is 7.36.

`Cc1cnc(N2CC3CN(C(=O)c4ccccc4-c4ccccc4)CC3C2)c(C)n1` (stereo not drawn) [Example 64, 2-(Biphenyl-2-ylcarbonyl)-5-(3,5-dimethylpyrazin-2-yl)octahydropyrrolo[3,4-c]pyrrole]: the pKi is 6.24.

For `Cc1nc2ccccc2nc1N1CC2CN(C(=O)c3ccccc3-c3cccs3)CC2C1` (stereo not drawn) [Example 65, 2-Methyl-3-{5-[(2-thiophen-2-ylphenyl)carbonyl]hexahydropyrrolo[3,4-c]pyrrol-2(1H)-yl}quinoxaline], the pKi was 6.64.

With `Cc1nc2ccccc2nc1N1CC2CN(C(=O)c3ccccc3-c3ccccc3)CC2C1` (stereo not drawn) [Example 66, 2-[5-(Biphenyl-2-ylcarbonyl)hexahydropyrrolo[3,4-c]pyrrol-2(1H)-yl]-3-methylquinoxaline], the pKi is 6.35.

For `Cc1cc(C)nc(N2CC3CN(C(=O)c4ccccc4-n4cccn4)CC3C2)n1` (stereo not drawn) [Example 67, 2-(4,6-Dimethylpyrimidin-2-yl)-5-{[2-(1H-pyrazol-1-yl)phenyl]carbonyl}octahydro-pyrrolo[3,4-c]pyrrole], the pKi is 6.92.

On to `COc1cc(OC)nc(N2CC3CN(C(=O)c4c(F)cccc4-c4ncccn4)CC3C2)n1` (stereo not drawn) [Example 68, 2-(4,6-Dimethoxypyrimidin-2-yl)-5-[(2-fluoro-6-pyrimidin-2-ylphenyl)carbonyl]octahydropyrrolo[3,4-c]pyrrole], for which the pKi was 7.89.

In the case of `Cc1cc(C)nc(N2CC3CN(C(=O)c4ccccc4-c4ccccn4)CC3C2)n1` (stereo not drawn) [Example 69, 2-(4,6-Dimethylpyrimidin-2-yl)-5-[(2-pyridin-2-ylphenyl)carbonyl]octahydro-pyrrolo[3,4-c]pyrrole], the negative-log Ki (pKi) was 7.77.

On to `COc1cc(OC)nc(N2CC3CN(C(=O)c4ccccc4-c4ccccn4)CC3C2)n1` (stereo not drawn) [Example 70, 2-(4,6-Dimethoxypyrimidin-2-yl)-5-[(2-pyridin-2-ylphenyl)carbonyl]octahydro-pyrrolo[3,4-c]pyrrole], for which the pKi is 7.28.

On to `COc1cc(OC)nc(N2CC3CN(C(=O)c4cc(F)ccc4-c4ncccn4)CC3C2)n1` (stereo not drawn) [Example 71, 2-(4,6-Dimethoxypyrimidin-2-yl)-5-[(5-fluoro-2-pyrimidin-2-ylphenyl)carbonyl]octahydropyrrolo[3,4-c]pyrrole], for which the pKi is 6.00.

In the case of `COc1cc(OC)nc(N2CC3CN(C(=O)c4cc(F)ccc4-n4nccn4)CC3C2)n1` (stereo not drawn) [Example 72, 2-(4,6-Dimethoxypyrimidin-2-yl)-5-{[5-fluoro-2-(2H-1,2,3-triazol-2-yl)phenyl]carbonyl}octahydropyrrolo[3,4-c]pyrrole], the pKi is 6.50.

With `Cc1cc(C)nc(N2CC3CN(C(=O)c4c(F)cccc4-c4ncccn4)CC3C2)n1` (stereo not drawn) [Example 73, 2-(4,6-Dimethylpyrimidin-2-yl)-5-[(2-fluoro-6-pyrimidin-2-ylphenyl)carbonyl]octahydropyrrolo[3,4-c]pyrrole], the pKi was 8.15.

Take `Cc1cc(C)nc(N2CC3CN(C(=O)c4cc(F)ccc4-c4ncccn4)CC3C2)n1` (stereo not drawn) [Example 74, 2-(4,6-Dimethylpyrimidin-2-yl)-5-[(5-fluoro-2-pyrimidin-2-ylphenyl)carbonyl]octahydropyrrolo[3,4-c]pyrrole]: the pKi was 7.85.

Consider `CCc1ccccc1C(=O)N1CC2CN(c3nc(C)cc(C)n3)CC2C1` (stereo not drawn) [Example 76, 2-(4,6-Dimethylpyrimidin-2-yl)-5-[(2-ethylphenyl)carbonyl]octahydropyrrolo[3,4-c]pyrrole], for which the pKi is 6.63.
